ChEMBL document CHEMBL1126761, “A novel constrained reduced-amide inhibitor of HIV-1 protease derived from the sequential incorporation of gamma-turn mimetics into a model substrate” (J Med Chem, 1993)
*1 amine or outer side, *2 acyl side, *3 side chain or, on linkers, in order; H or OH if unused. Where a SMILES comes first, the peptide text is derived from it. [ ]: non-standard residue; d: D form. X1 = CC(N[*:1])C1=CCC(=O)N([C@@H](Cc2ccccc2)C(=O)[*:2])CC1; X2 = O=C([C@@H]1CCCN1C[C@H](Cc1ccccc1)N[*:1])[*:2]

Each molecule was assayed against Human immunodeficiency virus type 1 protease (Human immunodeficiency virus 1, UniProt Q72874) (assay: Inhibition constant was determined against HIV-1 protease).
`CC(C)[C@H](NC(=O)[C@@H](NC(=O)[C@@H]1CCCN1C[C@H](Cc1ccccc1)NC(=O)[C@H](C)NC(=O)[C@H](C)NC(=O)[C@@H](N)CO)C(C)C)C(N)=O` (H-SAA[X2]VV-NH2) gave a Ki of 18.8 µM.
For `CC(NC(=O)[C@@H](N)CO)C1=CCC(=O)N([C@@H](Cc2ccccc2)C(=O)N2CCC[C@H]2C(=O)N[C@H](C(=O)N[C@H](C(N)=O)C(C)C)C(C)C)CC1` (some centres not stated) (H-S[X1]PVV-NH2), the Ki was greater than 2000 µM.
Work on `COC(=O)[C@@H](NC(=O)[C@@H](NC(=O)[C@H](C)N1CCC([C@H](C)NC(=O)[C@H](C)N)=CC(Cc2ccccc2)C1)C(C)C)C(C)C` (stereo in doubt; form 1) yielded a Ki of 0.43 µM.
`COC(=O)[C@@H](NC(=O)[C@@H](NC(=O)[C@H](C)N1CCC([C@H](C)NC(=O)[C@H](C)N)=CC(Cc2ccccc2)C1=O)C(C)C)C(C)C` (stereo in doubt; form 1) gave a Ki of 372 µM.
With `COC(=O)[C@@H](NC(=O)[C@H](C(C)C)N1CCC(C(Cc2ccccc2)NC(=O)[C@H](C)NC(=O)[C@H](C)NC(=O)[C@@H](N)CO)=CCC1=O)C(C)C` (stereo in doubt; form 1) the Ki was greater than 2000 µM.
Molecule `COC(=O)[C@@H](NC(=O)[C@@H](NC(=O)[C@H](C)N1CCC([C@H](C)NC(=O)[C@H](C)N)=CC(Cc2ccccc2)C1=O)C(C)C)C(C)C` (stereo in doubt; form 2) has a Ki of 147 µM.
For `COC(=O)[C@@H](NC(=O)[C@H](C(C)C)N1CCC(C(Cc2ccccc2)NC(=O)[C@H](C)NC(=O)[C@H](C)NC(=O)[C@@H](N)CO)=CCC1=O)C(C)C` (stereo in doubt; form 2), the Ki was 1700 µM.
